Measured values: patent US11459298B2, “Class of dicationic compounds as well as the preparative method and the use thereof” (WEST CHINA HOSPITAL, SICHUAN UNIVERSITY, priority 2018, dated 2022)

Assays:
human body = details: after single administration, clinical use; cited from earlier work
[1] = system: New Zealand white rabbits; assay: Experiment on muscle relaxation in anesthetized rabbits (TOF neuromuscular transmission monitor); type: in vivo, rabbit; details: for ED (2 x ED95): Oryctolagus cuniculus, intravenous injection, propofol anesthesia; for ED (2 x ED95) / Onset time / Recovery time: N = 8; for Onset time: TOF=0, after i.v. 2× ED95 equivalent dose; for Recovery time: TOF=90%, after i.v. 2× ED95 equivalent dose; for change characteristics of TOF 1-4 after administration: depolarizing vs non-depolarizing pattern
Method: Male New Zealand white rabbits weighing 2-3.5 kg were used as experimental animals for muscle relaxation test. The specific procedures were: propofol emulsion was intravenously administrated to induce and maintain general anesthesia (induction dose: 10 mg/kg; maintenance dose: […]). Tracheal intubation was carried out and respiratory support was used.

Row | Compound | duration of muscle relaxation / action time (human body) [min] | ED (2 x ED95) [1] [mg/kg] | Onset time [1] [s] | Recovery time [1] [min] | change characteristics of TOF 1-4 after administration [1]
1 | CC(=O)O[C@H]1C[C@@H]2CC[C@@H]3[C@H](CC[C@@]4(C)[C@H]3C[C@H]([N+]3(C)CCCCC3)[C@@H]4OC(C)=O)[C@@]2(C)C[C@@H]1[N+]1(C)CCCCC1 [pancuronium] | > 60 | – | – | – | –
2 | CC1CC[N+](CCCC(=O)OCOC(=O)OCC[N+](C)(Cc2ccccc2)Cc2ccc([N+](=O)[O-])cc2)(Cc2ccc([N+](=O)[O-])cc2)CC1 (centres unmarked) [Compound 35] | – | 1 | <40 | 7.2 ± 2.3 | –
3 | C[N+](CCOC(=O)OCOC(=O)CCC[N+]1(Cc2ccc([N+](=O)[O-])cc2)CCCCC1)(Cc1ccc([N+](=O)[O-])cc1)Cc1ccc(Cl)cc1Cl (centres unmarked) [Compound 5] | – | 1.6 | <40 | 5.2 ± 1.2 | –
4 | C[N+](CCOC(=O)OCOC(=O)CCC[N+]1(Cc2ccc(C(F)(F)F)cc2)CCCCC1)(Cc1ccccc1)Cc1ccc([N+](=O)[O-])cc1 (centres unmarked) [Compound 10] | – | 2.4 | <40 | 6.2 ± 0.9 | –
5 | C[N+](CCOC(=O)OCOC(=O)CCC[N+]1(Cc2ccc([N+](=O)[O-])cc2)CCCCC1)(Cc1ccc([N+](=O)[O-])cc1)Cc1c(F)cccc1F (centres unmarked) [Compound 6] | – | 0.8 | <40 | 4.1 ± 1.1 | –
6 | C[N+](CCOC(=O)OCOC(=O)CCC[N+]1(Cc2ccc([N+](=O)[O-])cc2)CCCCC1)(Cc1ccc(C#N)cc1)Cc1ccc([N+](=O)[O-])cc1 (centres unmarked) [Compound 8] | – | 1.7 | <40 | 7.2 ± 1.4 | –
7 | COc1ccc(C[C@@H]2c3cc(OC)c(OC)cc3CC[N@+]2(C)CCC(=O)OCCCCCOC(=O)CC[N@@+]2(C)CCc3cc(OC)c(OC)cc3[C@H]2Cc2ccc(OC)c(OC)c2)cc1OC [Cisatracurium, reference compound] | – | 0.08 | >90 | 17.6 ± 5.2 | successively and gradually decreased, rather than in equal proportion
8 | C[N+](CCOC(=O)OCOC(=O)COCC[N+]1(Cc2ccc([N+](=O)[O-])cc2)CCCCC1)(Cc1ccccc1)Cc1ccc([N+](=O)[O-])cc1 (centres unmarked) [Compound 19] | – | 0.8 | <40 | 4.1 ± 0.8 | –
9 | C[N+](CCOC(=O)OCOC(=O)CCC[N+]1(Cc2ccc([N+](=O)[O-])cc2)CCC(F)(F)CC1)(Cc1ccccc1)Cc1ccc([N+](=O)[O-])cc1 (centres unmarked) [Compound 45] | – | 0.8 | <40 | 5.1 ± 1.4 | –
10 | C[N+](CCOC(=O)OCOC(=O)CCC[N+]1(Cc2ccc([N+](=O)[O-])cc2)CCCCC1)(Cc1ccc(-c2ccccc2)cc1)Cc1ccc([N+](=O)[O-])cc1 (centres unmarked) [Compound 11] | – | 1.5 | <40 | 7.7 ± 1.6 | –
11 | C[N+](CCOC(=O)OCOC(=O)C[N+]1(Cc2ccc([N+](=O)[O-])cc2)CCCCC1)(Cc1ccccc1)Cc1ccc([N+](=O)[O-])cc1 (centres unmarked) [Compound 2] | – | 0.9 | <40 | 6.4 ± 1.4 | –
12 | COc1ccc(C[N+](C)(CCOC(=O)OCOC(=O)CCC[N+]2(Cc3ccc(OC)c(OC)c3)CCCCC2)Cc2ccc(OC)c(OC)c2)cc1OC [Compound 12] | – | 4.4 | <40 | 6.3 ± 2.1 | –
13 | C[N+](CCOC(=O)OCOC(=O)CCC[N+]1(Cc2ccc([N+](=O)[O-])cc2)CCCCC1)(Cc1ccc([N+](=O)[O-])cc1)Cc1ccc([N+](=O)[O-])cc1 [Compound 7] | – | 1.6 | <40 | 5.2 ± 1.1 | –
14 | C[N+](CCOC(=O)OCOC(=O)CCC[N+]1(Cc2ccc([N+](=O)[O-])cc2)CCCC1)(Cc1ccc(F)cc1)Cc1ccc([N+](=O)[O-])cc1 (centres unmarked) [Compound 47] | – | 1.4 | <40 | 3.1 ± 0.7 | –
15 | C[N+](CCOC(=O)OCOC(=O)CCC[N+]1(Cc2ccc([N+](=O)[O-])cc2)CCCCC1)(Cc1ccc(F)cc1)Cc1ccc([N+](=O)[O-])cc1 (centres unmarked) [Compound 3] | – | 1.8 | <40 | 4.8 ± 0.5 | –
16 | micuronium | 15 to 20 | – | – | – | –
17 | Cc1ccc(C[N+](C)(CCCCOC(=O)OCOC(=O)C[N+]2(Cc3ccc(C)c(C)c3)CCCCC2)Cc2ccc(C)c(C)c2)cc1C [Compound 13] | – | 6.2 | <40 | 6.9 ± 1.7 | –
18 | C[N+](CCOC(=O)OCOC(=O)CCC[N+]1(Cc2ccc([N+](=O)[O-])cc2)CCCCC1)(Cc1ccc([N+](=O)[O-])cc1)Cc1ccsc1 (centres unmarked) [Compound 38] | – | 1.2 | <40 | 4.4 ± 1.1 | –
19 | C[N+](CCOC(=O)OCOC(=O)CCC[N+]1(Cc2ccc([N+](=O)[O-])cc2)CCCCC1)(Cc1ccc(Cl)cc1)Cc1ccc([N+](=O)[O-])cc1 (centres unmarked) [Compound 4] | – | 1.4 | <40 | 5.4 ± 0.9 | –
20 | C[N+](C)(C)CCOC(=O)CCC(=O)OCC[N+](C)(C)C [Succinylcholine, reference compound] | 10 | 1.8 | <40 | 13.3 ± 3.5 | decreased in the same proportion until disappearance
21 | C[N+](CCCCOC(=O)OCOC(=O)C[N+]1(Cc2ccc([N+](=O)[O-])cc2)CCCCC1)(Cc1ccccc1)Cc1ccc([N+](=O)[O-])cc1 (centres unmarked) [Compound 1] | – | 0.8 | <40 | 5.2 ± 1.1 | –
22 | C[N+](CCOC(=O)OCOC(=O)CCC[N+]1(Cc2ccc([N+](=O)[O-])cc2)CCCCC1)(Cc1ccc([N+](=O)[O-])cc1)Cc1ccc(C(F)(F)F)cc1 (centres unmarked) [Compound 9] | – | 1.6 | <40 | 5.2 ± 1.2 | –
